Results on 6 compounds are retold here after publication PMC11951083, “Highly Specific Miniaturized Fluorescent Monoacylglycerol Lipase Probes Enable Translational Research” (Journal of the American Chemical Society, 2025).

Read-outs that look alike come from different tables or passages of the source.

For test [1], the target named is glycine (strychnine-insensitive) (Rattus norvegicus, UniProt P35439). Kind of test: glycine (strychnine-insensitive) (antagonist radioligand). Conditions: read-out: Inhibition glycine (strychnine-insensitive) (antagonist radioligand).
Sequence of glycine (strychnine-insensitive) (P35439 394-800): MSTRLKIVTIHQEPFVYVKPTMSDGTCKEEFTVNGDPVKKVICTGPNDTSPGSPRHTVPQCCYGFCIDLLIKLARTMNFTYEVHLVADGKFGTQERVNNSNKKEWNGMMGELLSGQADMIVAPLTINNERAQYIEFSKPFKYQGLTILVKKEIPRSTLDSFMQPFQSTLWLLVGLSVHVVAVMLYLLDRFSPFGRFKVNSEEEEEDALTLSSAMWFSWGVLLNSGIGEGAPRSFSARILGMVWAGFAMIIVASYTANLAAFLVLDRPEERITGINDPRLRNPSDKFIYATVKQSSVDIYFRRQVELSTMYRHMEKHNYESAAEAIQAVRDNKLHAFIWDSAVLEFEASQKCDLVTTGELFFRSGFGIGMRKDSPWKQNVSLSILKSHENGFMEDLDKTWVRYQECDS
Test [2] concerns the target N neuronal alpha4beta2 (h) (Homo sapiens, UniProt P17787+P43681). As to the kind of experiment: N neuronal alpha4beta2 (h) (agonist radioligand). Conditions: read-out: Inhibition N neuronal alpha4beta2 (h) (agonist radioligand).
Test [3] concerns Ca2+ channel (L, diltiazem site). Kind of test: Ca2+ channel (L, diltiazem site) (antagonist radioligand). Conditions: 10 µM.
The target of the next test is kappa (h) (KOP) (Homo sapiens, UniProt P41145). As to the kind of experiment: kappa (h) (KOP) (agonist radioligand). Conditions: read-out: Inhibition kappa (h) (KOP) (agonist radioligand).
Sequence of kappa (h) (KOP) (P41145 whole entry, the tested form may be a part): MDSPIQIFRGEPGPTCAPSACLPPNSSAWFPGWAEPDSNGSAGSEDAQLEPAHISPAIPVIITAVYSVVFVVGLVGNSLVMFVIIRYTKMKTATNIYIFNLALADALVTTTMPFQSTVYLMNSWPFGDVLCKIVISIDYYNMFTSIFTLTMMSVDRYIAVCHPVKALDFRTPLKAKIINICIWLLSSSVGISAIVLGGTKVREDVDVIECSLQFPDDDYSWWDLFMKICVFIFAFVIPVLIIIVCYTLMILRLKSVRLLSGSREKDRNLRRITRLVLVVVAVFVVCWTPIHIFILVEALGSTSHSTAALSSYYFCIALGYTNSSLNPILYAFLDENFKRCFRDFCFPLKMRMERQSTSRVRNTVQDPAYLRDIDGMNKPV
Test [4] deals with T1, NanoLuc luciferase MAGL fusion protein (Homo sapiens, UniProt Q99685).
T1 sequence (Q99685 1-303): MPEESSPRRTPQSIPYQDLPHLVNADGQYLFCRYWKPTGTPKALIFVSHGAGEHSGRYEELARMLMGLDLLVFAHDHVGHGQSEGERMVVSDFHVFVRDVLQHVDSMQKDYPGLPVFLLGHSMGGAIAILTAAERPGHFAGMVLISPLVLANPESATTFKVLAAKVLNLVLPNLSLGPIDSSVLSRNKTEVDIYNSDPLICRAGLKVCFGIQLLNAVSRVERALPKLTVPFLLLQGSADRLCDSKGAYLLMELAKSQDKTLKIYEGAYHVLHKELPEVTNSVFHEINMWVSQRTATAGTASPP
Kind of test: Cellular MAGL NanoBRET target engagement assay in live HEK293 cells. It counts as cell-based. As to the method:
This assay was performed as first described before.20
Compounds were profiled by a novel cellular MAGL NanoBRET™ Target Engagement assay, which measures the apparent affinity of test compounds by competitive displacement of a Roche -developed Tracer (WO2021058443, Example 2 121, or probe 4a, respectively), reversibly bound to a NanoLuc ® luciferase MAGL fusion protein in cells.
A HEK293A stable cell line expressing NanoLuc_MAGL was established at Roche and assigned as HEK293A_NanoLuc_MAGL clone #43. A fixed concentration of tracer is added to cells expressing the NanoLuc®_MAGL fusion protein to generate a BRET reporter complex. The introduction of competing compounds results in a dose -dependent decrease in NanoBRET™ energy transfer, which allows quantification of the intracellular affinity of the target protein for the test compound.
HEK293A_NanoLuc_MAGL clone #43 cells were cultured in DMEM (Gibco 31966) with 10% FBS and 800 ug/ml G418. The NanoBRET assay was performed by seeding 5000 cells/well in Costar low - volume white 384-well plate in assay buffer (1% FBS in HBSS), followed by adding the tracer (50 nM Example 21 or 100 nM 4a final concentration) and serial dilutions of test compounds. After 2 hours of incubation, Nanoluciferase substrates and extracellular inhibitors were added following the manufacturer's protocol (Promega, #N2520), and the NanoBRET signaling were quantified with the Paradigm (Molecular Devices).

The next test addresses T2, alpha2A (h) (Homo sapiens, UniProt P08913).
T2 sequence (P08913 1-465): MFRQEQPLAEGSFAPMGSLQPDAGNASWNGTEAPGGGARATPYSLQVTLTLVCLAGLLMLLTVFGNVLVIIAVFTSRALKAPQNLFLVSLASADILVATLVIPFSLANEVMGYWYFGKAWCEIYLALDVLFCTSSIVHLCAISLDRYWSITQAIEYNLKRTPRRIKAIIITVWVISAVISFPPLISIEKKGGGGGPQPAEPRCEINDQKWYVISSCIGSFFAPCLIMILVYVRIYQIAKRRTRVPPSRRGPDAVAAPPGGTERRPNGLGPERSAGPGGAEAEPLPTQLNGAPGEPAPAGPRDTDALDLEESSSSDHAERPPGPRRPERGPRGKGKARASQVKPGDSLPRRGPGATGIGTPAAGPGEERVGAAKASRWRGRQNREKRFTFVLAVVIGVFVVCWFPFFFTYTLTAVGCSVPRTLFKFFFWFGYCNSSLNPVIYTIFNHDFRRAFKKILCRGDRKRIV
Kind of test: alpha2A (h) (antagonist radioligand). Conditions: read-out: Inhibition alpha2A (h) (antagonist radioligand).

The target of a further test is T3, COX2(h) (Homo sapiens, UniProt P35354).
T3 sequence (P35354 18-604): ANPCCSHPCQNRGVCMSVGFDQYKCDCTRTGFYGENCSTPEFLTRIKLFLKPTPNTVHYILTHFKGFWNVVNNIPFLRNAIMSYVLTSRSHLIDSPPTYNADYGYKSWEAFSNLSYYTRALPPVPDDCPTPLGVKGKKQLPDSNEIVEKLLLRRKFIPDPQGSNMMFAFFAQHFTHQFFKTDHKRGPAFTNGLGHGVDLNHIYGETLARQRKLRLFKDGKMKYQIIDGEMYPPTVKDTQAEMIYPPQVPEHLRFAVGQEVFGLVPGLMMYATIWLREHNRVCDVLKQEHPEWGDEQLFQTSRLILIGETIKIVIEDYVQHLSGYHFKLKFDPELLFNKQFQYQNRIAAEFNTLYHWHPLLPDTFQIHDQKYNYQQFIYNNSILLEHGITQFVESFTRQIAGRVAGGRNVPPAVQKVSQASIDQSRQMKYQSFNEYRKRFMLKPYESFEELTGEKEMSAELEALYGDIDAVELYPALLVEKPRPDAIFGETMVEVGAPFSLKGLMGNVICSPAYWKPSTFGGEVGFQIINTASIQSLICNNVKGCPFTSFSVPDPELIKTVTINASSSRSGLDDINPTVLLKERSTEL
Kind of test: COX2(h). Conditions: read-out: Inhibition COX2(h).

The next test has as its target GSK3alpha (h) (Homo sapiens, UniProt P49840). As to the kind of experiment: GSK3alpha (h). Conditions: read-out: Inhibition GSK3alpha (h).
The test system of a further test is N muscle-type (h). Kind of test: N muscle-type (h) (antagonist radioligand). Conditions: 10 µM.
Another test concerns the target T4, A1 (h) (Homo sapiens, UniProt P30542).
T4 sequence (P30542 1-326): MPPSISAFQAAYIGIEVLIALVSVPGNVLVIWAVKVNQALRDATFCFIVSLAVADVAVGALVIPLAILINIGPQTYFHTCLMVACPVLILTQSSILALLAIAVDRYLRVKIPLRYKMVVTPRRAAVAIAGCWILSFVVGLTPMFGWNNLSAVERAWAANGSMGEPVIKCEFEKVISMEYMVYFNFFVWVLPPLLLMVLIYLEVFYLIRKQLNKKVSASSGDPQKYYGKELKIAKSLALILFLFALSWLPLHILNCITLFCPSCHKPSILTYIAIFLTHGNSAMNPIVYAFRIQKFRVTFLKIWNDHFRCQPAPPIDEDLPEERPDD
As to the kind of experiment: A1 (h) (agonist radioligand). Conditions: read-out: Inhibition A1 (h) (agonist radioligand).

Setting [5] is: live HEK293 cells, read-out: IC50 nanoBRET.

Sequence of N neuronal alpha4beta2 (h) (P43681 29-627 limits assumed): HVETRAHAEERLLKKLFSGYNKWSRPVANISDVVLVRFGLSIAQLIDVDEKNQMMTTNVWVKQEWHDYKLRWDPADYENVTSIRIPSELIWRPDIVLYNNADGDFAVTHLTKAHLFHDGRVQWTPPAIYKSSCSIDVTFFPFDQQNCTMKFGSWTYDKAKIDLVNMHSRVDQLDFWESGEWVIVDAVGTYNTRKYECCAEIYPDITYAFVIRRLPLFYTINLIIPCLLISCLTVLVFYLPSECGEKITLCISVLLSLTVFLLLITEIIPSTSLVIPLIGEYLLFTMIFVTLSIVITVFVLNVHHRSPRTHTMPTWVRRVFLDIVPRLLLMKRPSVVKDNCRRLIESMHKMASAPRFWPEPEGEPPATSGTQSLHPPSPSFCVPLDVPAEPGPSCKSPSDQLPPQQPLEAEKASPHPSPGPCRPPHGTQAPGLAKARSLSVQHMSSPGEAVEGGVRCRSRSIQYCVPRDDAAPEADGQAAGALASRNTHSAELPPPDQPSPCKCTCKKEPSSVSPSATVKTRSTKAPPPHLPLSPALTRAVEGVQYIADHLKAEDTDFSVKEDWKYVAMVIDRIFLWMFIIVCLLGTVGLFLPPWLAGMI
Sequence of N neuronal alpha4beta2 (h) (P17787 26-502): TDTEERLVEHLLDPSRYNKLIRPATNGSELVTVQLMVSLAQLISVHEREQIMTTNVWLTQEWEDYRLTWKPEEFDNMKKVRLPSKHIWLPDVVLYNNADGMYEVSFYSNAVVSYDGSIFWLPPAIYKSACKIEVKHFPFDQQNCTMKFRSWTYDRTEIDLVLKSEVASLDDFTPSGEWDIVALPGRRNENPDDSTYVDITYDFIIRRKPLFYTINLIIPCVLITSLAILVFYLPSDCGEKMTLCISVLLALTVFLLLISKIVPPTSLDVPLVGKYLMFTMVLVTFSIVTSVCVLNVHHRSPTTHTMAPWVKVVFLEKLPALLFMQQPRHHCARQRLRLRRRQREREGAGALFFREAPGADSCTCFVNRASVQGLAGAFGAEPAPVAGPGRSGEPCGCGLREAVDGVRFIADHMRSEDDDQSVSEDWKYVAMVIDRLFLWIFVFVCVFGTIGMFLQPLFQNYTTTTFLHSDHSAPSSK
Sequence of GSK3alpha (h) (P49840 whole entry): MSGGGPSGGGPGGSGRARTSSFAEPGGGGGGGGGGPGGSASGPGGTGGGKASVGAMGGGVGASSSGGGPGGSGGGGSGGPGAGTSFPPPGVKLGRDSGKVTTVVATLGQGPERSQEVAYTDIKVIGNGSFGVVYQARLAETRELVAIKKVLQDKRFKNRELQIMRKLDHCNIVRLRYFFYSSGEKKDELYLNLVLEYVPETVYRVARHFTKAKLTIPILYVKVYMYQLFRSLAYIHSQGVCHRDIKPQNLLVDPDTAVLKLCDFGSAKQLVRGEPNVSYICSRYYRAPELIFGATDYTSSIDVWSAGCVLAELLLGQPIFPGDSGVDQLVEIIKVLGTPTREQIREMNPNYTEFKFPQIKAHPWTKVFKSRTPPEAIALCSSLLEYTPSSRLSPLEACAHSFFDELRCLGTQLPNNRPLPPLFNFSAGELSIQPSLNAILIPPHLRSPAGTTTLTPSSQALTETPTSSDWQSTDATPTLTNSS

For `O=C(O[C@H](CO)C(F)(F)F)N1CC2(CC(CC3=C4C=CC=[N+]4[B-](F)(F)n4cccc43)C2)C1` [Compound 1], the inhibition at 10 µM in test [1] is -6.7%; in test [2], -18.3%; on kappa (h) (KOP), 7.8%; at alpha2A (h), 11.7%; on COX2(h), 45.5%; on GSK3alpha (h), 0.3%. The inhibition at 10 µM on A1 (h) is -3.9%. The “Inhibition Ca2+ channel (L, diltiazem site) (antagonist radioligand)” value (“Inhibition Ca2+ channel” for short) in test [3] is 20,60%. Further, the IC50 in [4] (setting [5]) came out at 0.276 µM. The “Inhibition N muscle-type (h) (antagonist radioligand)” value (from here on “Inhibition N muscle-type (h)”) with N muscle-type (h) is on record as -11,30%.
On to `O=C(OC(C(F)(F)F)C(F)(F)F)N1CC2(CC(CC3=C4C=CC=[N+]4[B-](F)(F)n4cccc43)C2)C1` [Compound 2], for which the inhibition at 10 µM in test [1] was 6.5%; in test [2], -1.7%; at kappa (h) (KOP), 5.9%; at alpha2A (h), -2.2%; on COX2(h) it was 31.9%; on GSK3alpha (h), -3.4%. Also, the inhibition at 10 µM at A1 (h) was determined as 4.4%. The “Inhibition Ca2+ channel” value in [3] is recorded as -14,00%. Also, the IC50 in test [4] (setting [5]) stood at 0.72 µM. Besides, the “Inhibition N muscle-type (h)” value with N muscle-type (h) is -0,30%.
Regarding `O=C(OC(C(F)(F)F)C(F)(F)F)N1CC2(CC(CC3=C4C=CC(c5ccc[nH]5)=[N+]4[B-](F)(F)n4cccc43)C2)C1` [Compound 2a], the inhibition at 10 µM in test [1] is -2%; in test [2], 4.2%; at kappa (h) (KOP) it was 4.9%; on alpha2A (h) it was -0.9%; on COX2(h), 49.5%; at GSK3alpha (h), -5.8%. For the same compound, the inhibition at 10 µM on A1 (h) is -1%. In addition, in test [3], the “Inhibition Ca2+ channel” value was 9,70%. Besides, the “Inhibition N muscle-type (h)” value in the test on N muscle-type (h) was -9,40%.
For the compound `O=C1CO[C@H]2CCN(C(=O)N3CC4(CC(CC5=C6C=CC=[N+]6[B-](F)(F)n6cccc65)C4)C3)C[C@H]2N1` [Compound 4], the 50% inhibitory concentration (IC50) in test [4] (setting [5]) was found to be 0.196 µM.
Turning to `O=C1CO[C@H]2CCN(C(=O)N3CC4(CC(CC5=C6C=CC(c7ccc[nH]7)=[N+]6[B-](F)(F)n6cccc65)C4)C3)C[C@H]2N1` [Compound 4a], the inhibition at 10 µM was 3.1% in [1]; -0.6% in test [2]; 22.7% at kappa (h) (KOP); 7.4% on alpha2A (h); 48.9% at COX2(h); -24.8% on GSK3alpha (h). Moreover, the inhibition at 10 µM on A1 (h) was determined as 8.7%. In test [3], the “Inhibition Ca2+ channel” value is 6,20%. Moreover, the “Inhibition N muscle-type (h)” value in the test with N muscle-type (h) is given as -1,70%.
With `O=C(N1CC2(CC(CC3=C4C=CC=[N+]4[B-](F)(F)n4cccc43)C2)C1)N1CC2(CC(n3cnc(C4CC4)n3)C2)C1` [Compound 5], the inhibition at 10 µM in test [1] was -20.3%; in [2], -16.6%; at kappa (h) (KOP) it was 10.3%; on alpha2A (h), -8.9%; at COX2(h), 23.8%; at GSK3alpha (h) it was -1.8%. The inhibition at 10 µM at A1 (h) stood at 1.3%. Also, the “Inhibition Ca2+ channel” value in test [3] is on record as 1,70%. The IC50 in [4] is 0.085 µM. The “Inhibition N muscle-type (h)” value with N muscle-type (h) is 17,00%.

The inhibition is the relative decrease from the control value, in per cent. As a reminder, the IC50 is the midpoint of a concentration-inhibition curve.
